One compound from ChEMBL document CHEMBL4145459, “Synthesis of (3S,4S,5S)-trihydroxylpiperidine derivatives as enzyme stabilizers to improve therapeutic enzyme activity in Fabry patient cell lines” (Eur J Med Chem, 2018) can be followed below.

Calls of active or inactive are those of the source. The rule behind the calls is not given here.

The target of series [1] is T1, Lysosomal acid glucosylceramidase (Homo sapiens) (UniProt P04062).
T1 sequence (whole entry): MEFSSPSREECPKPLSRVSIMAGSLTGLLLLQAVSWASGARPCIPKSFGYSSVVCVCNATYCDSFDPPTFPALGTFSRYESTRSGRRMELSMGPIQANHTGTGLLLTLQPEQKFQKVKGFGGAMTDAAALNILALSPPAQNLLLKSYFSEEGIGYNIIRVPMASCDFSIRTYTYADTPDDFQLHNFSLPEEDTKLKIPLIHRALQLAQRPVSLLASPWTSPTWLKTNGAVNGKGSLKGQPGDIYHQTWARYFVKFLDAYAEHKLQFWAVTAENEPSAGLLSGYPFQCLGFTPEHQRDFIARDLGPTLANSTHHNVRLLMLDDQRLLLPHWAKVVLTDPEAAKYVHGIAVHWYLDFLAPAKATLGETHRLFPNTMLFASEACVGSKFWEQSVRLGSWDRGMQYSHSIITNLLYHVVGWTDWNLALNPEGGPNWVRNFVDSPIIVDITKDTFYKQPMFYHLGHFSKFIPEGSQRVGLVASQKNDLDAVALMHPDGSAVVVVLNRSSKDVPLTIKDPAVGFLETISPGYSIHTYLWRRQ
Description: Inhibition of human recombinant acid beta-glucosidase at 100 uM using 4-MU-glycopyranoside as substrate by spectrophotometric analysis.

Another series concerns Lymphocyte. Description: Cytotoxicity against human lymphocytes at 100 uM after 48 to 72 hrs by AlamarBlue assay. Format: cell-based. (Alamar Blue is a resazurin reagent that responds to reducing activity.)
For series [2], the target named is T2, Alpha-glucosidase (Geobacillus stearothermophilus) (UniProt P94451).
T2 sequence (whole entry): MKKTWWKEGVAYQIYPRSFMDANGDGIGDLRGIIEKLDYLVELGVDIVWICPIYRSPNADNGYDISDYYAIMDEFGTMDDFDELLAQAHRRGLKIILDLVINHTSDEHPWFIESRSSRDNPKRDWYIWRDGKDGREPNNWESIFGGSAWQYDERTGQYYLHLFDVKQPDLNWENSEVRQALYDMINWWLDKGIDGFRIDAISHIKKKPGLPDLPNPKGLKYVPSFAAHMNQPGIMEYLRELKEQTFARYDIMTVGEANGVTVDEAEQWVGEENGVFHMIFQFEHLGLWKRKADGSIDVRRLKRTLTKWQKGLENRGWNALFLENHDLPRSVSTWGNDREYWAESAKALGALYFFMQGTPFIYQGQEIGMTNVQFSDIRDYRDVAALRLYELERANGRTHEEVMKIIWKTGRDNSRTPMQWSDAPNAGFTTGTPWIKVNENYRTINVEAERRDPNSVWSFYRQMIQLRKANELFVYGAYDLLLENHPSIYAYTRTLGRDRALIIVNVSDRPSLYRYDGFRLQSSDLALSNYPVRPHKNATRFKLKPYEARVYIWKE
Description: Inhibition of Bacillus stearothermophilus alpha-glucosidase at 100 uM using 4-MU-glycopyranoside as substrate by spectrophotometric analysis.

Series [3] has as its target T3, Lysosomal alpha-mannosidase (Homo sapiens) (UniProt O00754).
T3 sequence (whole entry): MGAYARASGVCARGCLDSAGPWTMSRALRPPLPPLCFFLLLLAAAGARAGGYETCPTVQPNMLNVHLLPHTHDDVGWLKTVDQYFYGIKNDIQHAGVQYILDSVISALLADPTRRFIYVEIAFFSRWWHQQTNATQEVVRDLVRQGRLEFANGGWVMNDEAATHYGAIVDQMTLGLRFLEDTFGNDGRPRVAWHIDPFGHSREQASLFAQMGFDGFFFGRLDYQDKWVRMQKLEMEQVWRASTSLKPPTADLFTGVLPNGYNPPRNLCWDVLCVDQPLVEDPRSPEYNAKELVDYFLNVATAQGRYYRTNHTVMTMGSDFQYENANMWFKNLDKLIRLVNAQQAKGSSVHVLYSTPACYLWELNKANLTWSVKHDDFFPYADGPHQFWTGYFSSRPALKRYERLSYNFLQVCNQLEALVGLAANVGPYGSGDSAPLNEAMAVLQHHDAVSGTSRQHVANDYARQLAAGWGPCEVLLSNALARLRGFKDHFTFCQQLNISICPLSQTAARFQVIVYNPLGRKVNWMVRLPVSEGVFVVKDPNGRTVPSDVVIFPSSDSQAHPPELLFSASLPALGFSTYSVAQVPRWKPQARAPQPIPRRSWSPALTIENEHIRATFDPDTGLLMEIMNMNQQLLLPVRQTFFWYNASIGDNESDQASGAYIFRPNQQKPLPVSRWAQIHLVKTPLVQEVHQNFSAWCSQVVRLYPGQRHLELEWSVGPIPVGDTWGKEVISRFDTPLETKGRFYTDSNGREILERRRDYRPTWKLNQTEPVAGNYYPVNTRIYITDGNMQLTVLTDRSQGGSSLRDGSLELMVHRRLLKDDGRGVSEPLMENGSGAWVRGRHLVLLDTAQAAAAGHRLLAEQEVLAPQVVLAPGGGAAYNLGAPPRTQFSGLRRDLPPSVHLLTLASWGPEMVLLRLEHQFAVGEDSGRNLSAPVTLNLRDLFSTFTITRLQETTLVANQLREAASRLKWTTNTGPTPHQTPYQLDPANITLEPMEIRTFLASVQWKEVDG
Description: Inhibition human recombinant acid alpha-mannosidase at 100 uM using p-nitrophenyl-glycopyranoside as substrate by spectrophotometric analysis.

Series [4] addresses Alpha-galactosidase (Coffea arabica) (UniProt Q42656). The experiment in a line: Inhibition of green coffee beans alpha-galactosidase at 100 uM using 4-MU-glycopyranoside as substrate by spectrophotometric analysis relative to control.
Series [5] deals with T4, Alpha-galactosidase A (Homo sapiens) (UniProt P06280).
T4 sequence (whole entry): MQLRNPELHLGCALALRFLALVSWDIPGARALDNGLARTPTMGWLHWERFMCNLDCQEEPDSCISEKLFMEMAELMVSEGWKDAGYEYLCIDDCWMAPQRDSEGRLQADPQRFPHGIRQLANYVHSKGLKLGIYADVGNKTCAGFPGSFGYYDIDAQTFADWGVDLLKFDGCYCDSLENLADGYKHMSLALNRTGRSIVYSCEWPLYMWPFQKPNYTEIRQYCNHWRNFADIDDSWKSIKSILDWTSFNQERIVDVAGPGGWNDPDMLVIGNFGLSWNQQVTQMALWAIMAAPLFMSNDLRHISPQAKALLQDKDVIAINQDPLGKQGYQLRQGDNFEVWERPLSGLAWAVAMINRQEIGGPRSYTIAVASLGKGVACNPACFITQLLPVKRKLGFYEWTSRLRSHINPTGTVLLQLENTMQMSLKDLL
Description: Inhibition of human recombinant alpha-galactosidase A at 100 uM using 4-MU-alpha-d-galactopyranoside as substrate by fluorescence assay relative to control.

In series [6] the target is T5, Beta-galactosidase (Homo sapiens) (UniProt P16278).
T5 sequence (whole entry): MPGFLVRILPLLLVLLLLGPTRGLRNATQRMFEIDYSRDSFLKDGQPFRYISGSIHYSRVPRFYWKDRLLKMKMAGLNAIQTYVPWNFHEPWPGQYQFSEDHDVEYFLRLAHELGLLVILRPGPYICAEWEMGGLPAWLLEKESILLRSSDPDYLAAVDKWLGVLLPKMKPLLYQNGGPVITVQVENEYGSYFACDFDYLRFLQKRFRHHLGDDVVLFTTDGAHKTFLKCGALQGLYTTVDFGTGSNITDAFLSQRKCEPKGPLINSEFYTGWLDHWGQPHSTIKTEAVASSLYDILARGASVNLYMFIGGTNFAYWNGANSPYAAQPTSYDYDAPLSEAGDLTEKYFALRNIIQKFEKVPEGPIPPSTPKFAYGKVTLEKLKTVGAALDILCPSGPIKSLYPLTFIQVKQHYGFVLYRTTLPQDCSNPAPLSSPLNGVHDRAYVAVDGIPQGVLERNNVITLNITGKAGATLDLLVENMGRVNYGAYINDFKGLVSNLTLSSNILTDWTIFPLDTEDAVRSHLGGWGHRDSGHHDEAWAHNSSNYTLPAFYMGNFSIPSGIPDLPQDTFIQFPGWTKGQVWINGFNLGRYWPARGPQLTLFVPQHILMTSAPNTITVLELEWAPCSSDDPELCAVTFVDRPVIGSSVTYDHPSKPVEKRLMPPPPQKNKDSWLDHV
The experiment in a line: Inhibition of human lymphocyte beta-galactosidase at 100 uM using 4-MU-glycopyranoside as substrate by spectrophotometric analysis.

For series [7], the target named is Lysosomal alpha-glucosidase (Homo sapiens) (UniProt P10253). The experiment in a line: Inhibition of human recombinant acid alpha-glucosidase at 100 uM using 4-MU-glycopyranoside as substrate by spectrophotometric analysis.

Chain of Alpha-galactosidase (Coffea arabica) (Q42656 16-378 limits assumed): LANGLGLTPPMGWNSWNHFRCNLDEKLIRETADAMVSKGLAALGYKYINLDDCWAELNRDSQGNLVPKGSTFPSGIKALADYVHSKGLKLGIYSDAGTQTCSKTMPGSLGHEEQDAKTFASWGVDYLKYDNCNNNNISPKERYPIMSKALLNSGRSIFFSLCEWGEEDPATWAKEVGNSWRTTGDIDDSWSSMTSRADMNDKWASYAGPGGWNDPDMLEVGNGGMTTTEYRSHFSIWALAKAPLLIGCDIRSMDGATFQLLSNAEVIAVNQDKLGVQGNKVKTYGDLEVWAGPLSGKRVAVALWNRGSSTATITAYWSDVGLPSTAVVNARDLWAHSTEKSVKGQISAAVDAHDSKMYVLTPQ

What is called inhibition is the relative decrease from the control value, in per cent. As to `COc1ccc(OC)c(/C=C/C(=O)NC[C@H]2NC[C@H](O)[C@@H](O)[C@H]2O)c1`, the inhibition result in series [1], in series [2], in series [3], in series [6] and in series [7] was “inactive” throughout. Moreover, the Activity entry with Lymphocyte is given as “Non-Toxic”. The inhibition in series [4] was found to be 57%; in series [5], 99%.
